Here are results for 17 molecules from patent US11584747B2, “Substituted pyridopyrimidinonyl compounds useful as T cell activators” (BRISTOL-MYERS SQUIBB COMPANY, priority 2019, dated 2023).

In general, IC50 refers to the midpoint of a concentration-inhibition curve. As usually defined, the EC50 is the concentration at which the effect is half-maximal.

In experiment [1] the target is human DGKα (Homo sapiens (Human), UniProt P23743). Briefly: DGKα ADPGLO assay (detergent/lipid micelle substrate). It counts as biochemical. The settings on record: ADPGLO assay; read-out: DGK alpha ADPGLO IC50. As to the method:
DGK Alpha ADPGLO (Truncated) IC50 (uM)
The detergent/lipid micelle was prepared by combining 15 g phosphatidylserine (Avanti 840035P) and 1 g diacylglycerol (8008110) and dissolving into 150 mL chloroform in a 2 L round bottom flask. Chloroform was removed under high vacuum by rotary evaporation. […] The lipid/detergent solution was split into 5 mL aliquots and stored at −80° C.

For experiment [2], the target named is human DGKζ (Homo sapiens (Human), UniProt Q13574). Briefly: DGKζ LIPGLO assay (extruded liposome substrate, ADP-Glo luminescence). In kind it is biochemical. Conditions: liposome (LIPGLO) assay; read-out: DGK zeta (liposome assay) IC50.
human DGKζ, sequence (Q13574 other isoform, or with tags, fused parts or gaps): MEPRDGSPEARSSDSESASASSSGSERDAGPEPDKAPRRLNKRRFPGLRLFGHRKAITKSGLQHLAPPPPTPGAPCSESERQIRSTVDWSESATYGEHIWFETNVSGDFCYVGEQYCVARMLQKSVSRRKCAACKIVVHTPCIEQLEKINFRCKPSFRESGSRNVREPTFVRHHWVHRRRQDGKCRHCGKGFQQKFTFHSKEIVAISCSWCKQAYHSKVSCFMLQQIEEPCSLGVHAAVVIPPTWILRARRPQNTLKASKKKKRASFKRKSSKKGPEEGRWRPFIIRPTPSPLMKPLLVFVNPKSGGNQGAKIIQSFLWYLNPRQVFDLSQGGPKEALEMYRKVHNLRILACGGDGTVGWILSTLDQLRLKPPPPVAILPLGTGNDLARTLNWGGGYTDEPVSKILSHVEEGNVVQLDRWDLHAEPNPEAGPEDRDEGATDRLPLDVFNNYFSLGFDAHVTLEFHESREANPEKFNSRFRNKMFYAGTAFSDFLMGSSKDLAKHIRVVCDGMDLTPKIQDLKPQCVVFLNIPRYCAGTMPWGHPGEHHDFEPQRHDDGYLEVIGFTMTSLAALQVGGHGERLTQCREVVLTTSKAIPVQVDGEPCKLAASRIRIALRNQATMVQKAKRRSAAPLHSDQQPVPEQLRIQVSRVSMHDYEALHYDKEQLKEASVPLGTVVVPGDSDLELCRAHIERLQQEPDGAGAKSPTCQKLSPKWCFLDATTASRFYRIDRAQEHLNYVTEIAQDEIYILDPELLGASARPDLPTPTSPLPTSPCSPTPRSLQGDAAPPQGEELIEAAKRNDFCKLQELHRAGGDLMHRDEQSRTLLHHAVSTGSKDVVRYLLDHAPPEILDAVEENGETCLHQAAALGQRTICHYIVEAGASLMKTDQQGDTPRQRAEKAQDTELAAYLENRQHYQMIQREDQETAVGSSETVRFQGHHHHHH
Experiment [3] has as its system whole blood (pERK). Briefly: pERK Whole Blood. It counts as cell-based.
The subject of experiment [4] is human venous whole blood (IFN-γ). Briefly: Human whole blood IFN-γ assay. In kind it is cell-based. Conditions: human whole blood, anti-CD3 plus anti-CD28 stimulation, 24 hours; read-out: IFN-γ Whole Blood EC50. As to the method: Human venous whole blood (22.5 μL per well), obtained from healthy donors, was pre-treated with compounds for one hour at 37° C. in a humidified 95% air/5% CO2 incubator. The blood was stimulated with 2.5 μL anti-human CD3 and anti-CD28 mAb at a final concentration of 1 μg/mL each for 24 hours at 37° C. IFN-γ in the supernatants was measured using AlphLISA kit (Cat #AL217).

human DGKα, sequence (P23743 whole entry, looked up, the tested form may be a part): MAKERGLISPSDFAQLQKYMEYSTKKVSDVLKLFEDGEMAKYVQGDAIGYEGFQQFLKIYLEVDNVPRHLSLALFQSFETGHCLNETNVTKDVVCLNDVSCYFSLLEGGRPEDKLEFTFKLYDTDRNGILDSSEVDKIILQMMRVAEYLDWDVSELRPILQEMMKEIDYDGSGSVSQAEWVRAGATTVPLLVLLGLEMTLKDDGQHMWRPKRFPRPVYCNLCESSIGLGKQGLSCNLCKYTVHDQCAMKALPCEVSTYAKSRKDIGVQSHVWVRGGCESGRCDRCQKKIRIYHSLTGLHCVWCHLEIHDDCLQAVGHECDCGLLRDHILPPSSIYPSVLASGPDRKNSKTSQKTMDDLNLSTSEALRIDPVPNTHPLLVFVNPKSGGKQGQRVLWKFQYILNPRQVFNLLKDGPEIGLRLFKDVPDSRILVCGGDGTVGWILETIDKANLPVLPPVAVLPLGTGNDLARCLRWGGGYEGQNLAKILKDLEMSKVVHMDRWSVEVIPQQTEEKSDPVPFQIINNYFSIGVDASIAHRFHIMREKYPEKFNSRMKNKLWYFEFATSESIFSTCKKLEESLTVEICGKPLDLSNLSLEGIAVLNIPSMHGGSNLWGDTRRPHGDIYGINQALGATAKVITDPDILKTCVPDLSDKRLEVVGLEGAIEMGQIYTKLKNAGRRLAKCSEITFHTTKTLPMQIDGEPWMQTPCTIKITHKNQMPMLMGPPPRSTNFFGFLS

`CCOC[C@@H]1CN(c2nc(=O)n(C)c3ccc(C#N)nc23)[C@@H](C)CN1C(CC)c1ccc(C(F)(F)F)cc1` (stereo partly drawn) [Example 400, 4-((2S,5S)-5-(ethoxymethyl)-2-methyl-4-(1-(4-(trifluoromethyl)phenyl)propyl)piperazin-1-yl)-1-methyl-2-oxo-1,2-dihydropyrido[3,2-d]pyrimidine-6-carbonitrile]: the IC50 in experiment [1] was 750 nM; in experiment [2], 47 nM. The same molecule gave an EC50 in experiment [3] of 20000 nM.

Consider `CCC(c1ccc(OCCC2CC2)cc1)N1C[C@H](C)N(c2nc(=O)n(C)c3ccc(C#N)nc23)C[C@H]1CC` (stereo partly drawn) [Example 340, 4-((2S,5R)-4-(1-(4-(2-cyclopropylethoxy)phenyl)propyl)-5-ethyl-2-methylpiperazin-1-yl)-1-methyl-2-oxo-1,2-dihydropyrido[3,2-d]pyrimidine-6-carbonitrile], for which the IC50 was 6310 nM in experiment [1] and 15900 nM in experiment [2]. In experiment [3], this molecule came in with an EC50 of 12900 nM.

For the molecule `CCC(c1ccc(OCCC2CC2)cc1)N1C[C@H](C)N(c2nc(=O)n(C)c3ccc(C#N)nc23)C[C@H]1CC` (stereo partly drawn) [Example 339, 4-((2S,5R)-4-(1-(4-(2-cyclopropylethoxy)phenyl)propyl)-5-ethyl-2-methylpiperazin-1-yl)-1-methyl-2-oxo-1,2-dihydropyrido[3,2-d]pyrimidine-6-carbonitrile], the IC50 came out at 75 nM in experiment [1] and 79 nM in experiment [2]. In addition, the EC50 in experiment [3] turned out to be 280 nM.

`CC[C@@H]1CN(c2nc(=O)n(C)c3ccc(C#N)nc23)[C@@H](C)CN1C(C)c1ccc(C(F)(F)F)c(CN2CCCCC2)c1` (stereo partly drawn) [Example 355, 4-((2S,5R)-5-ethyl-2-methyl-4-(1-(3-(piperidin-1-ylmethyl)-4-(trifluoromethyl)phenyl)ethyl)piperazin-1-yl)-1-methyl-2-oxo-1,2-dihydropyrido[3,2-d]pyrimidine-6-carbonitrile]: the IC50 in experiment [2] is 41700 nM. For the same molecule, the response in experiment [3] was half-maximal at 6690 nM (EC50).

Turning to `CCC(N1C[C@H](C)N(c2nc(=O)n(C)c3ccc(C#N)nc23)C[C@H]1C)C12CC(C(F)(F)F)(C1)C2` (stereo partly drawn) [Example 447, 4-((2S,5R)-2,5-dimethyl-4-(1-(3-(trifluoromethyl)bicyclo[1.1.1]pentan-1-yl)propyl)piperazin-1-yl)-1-methyl-2-oxo-1,2-dihydropyrido[3,2-d]pyrimidine-6-carbonitrile], the figures for the IC50 in experiment [1] and in experiment [2] were 13600 nM and 5570 nM, respectively. The molecule also returned an EC50 in experiment [3] of 20000 nM.

Regarding `CCC(c1ccc(OCCC(F)(F)F)cc1)N1C[C@H](C)N(c2nc(=O)n(C)c3ccc(C#N)nc23)C[C@H]1CC` (single isomer, unassigned) [Example 335], the results for the IC50 in experiment [1] and in experiment [2] were 25 nM and 120 nM, respectively. For the same molecule, in experiment [3], the EC50 came out at 140 nM.

With `CCC(c1ccc(OCCC(F)(F)F)cc1)N1C[C@H](C)N(c2nc(=O)n(C)c3ccc(C#N)nc23)C[C@H]1CC` (single isomer, unassigned) [Example 336], the IC50 in experiment [1] stood at 480 nM; in experiment [2] it was 1100 nM. For the same molecule, in experiment [3], the EC50 was 20000 nM.

`CC[C@@H]1CN(c2nc(=O)n(C)c3ccc(C#N)nc23)[C@@H](C)CN1C(C)c1ccc(C2(C#N)CC2)cc1` (stereo partly drawn) [Example 325, 4-((2S,5R)-4-(1-(4-(1-cyanocyclopropyl)phenyl)ethyl)-5-ethyl-2-methylpiperazin-1-yl)-1-methyl-2-oxo-1,2-dihydropyrido[3,2-d]pyrimidine-6-carbonitrile]: the IC50 in experiment [1] came out at 800 nM; in experiment [2] it was 69 nM. In addition, it took 70 nM to reach a half-maximal effect in experiment [3] (EC50).

Take `CC[C@@H]1CN(c2nc(=O)n(C)c3ccc(C#N)nc23)[C@@H](C)CN1C(c1ccc(F)cc1)c1cccc(C(F)F)n1` (stereo partly drawn) [Example 315, 4-((2 S,5R)-4-((6-(difluoromethyl)pyridin-2-yl)(4-fluorophenyl)methyl)-5-ethyl-2-methylpiperazin-1-yl)-1-methyl-2-oxo-1,2-dihydropyrido[3,2-d]pyrimidine-6-carbonitrile]: the IC50 was 26 nM in experiment [1] and 190 nM in experiment [2]. In addition, in experiment [3], the EC50 was 270 nM.

For `C[C@@H]1CN(c2nc(=O)n(C)c3ccc(C#N)nc23)[C@@H](C)CN1C(c1ccc(F)cc1)C12CC(C(F)(F)F)(C1)C2` (stereo partly drawn) [Example 450, 4-((2S,5R)-4-((4-fluorophenyl)(3-(trifluoromethyl)bicyclo[1.1.1]pentan-1-yl)methyl)-2,5-dimethylpiperazin-1-yl)-1-methyl-2-oxo-1,2-dihydropyrido[3,2-d]pyrimidine-6-carbonitrile], the IC50 in experiment [1] came out at 200 nM; in experiment [2], 370 nM. Further, the EC50 in experiment [3] was found to be 20000 nM.

Consider `CC[C@@H]1CN(c2nc(=O)n(C)c3ccc(C#N)nc23)[C@@H](CO)CN1C(C)c1ccc(C(F)(F)F)cc1` (single isomer, unassigned) [Example 412], for which the IC50 in experiment [1] came to 9670 nM; in experiment [2] it was 45000 nM. Besides, the midpoint of the response in experiment [3], the EC50, lay at 670 nM.

On to `CC[C@H]1CN(C(C)c2ccc(C(F)(F)F)cc2)[C@H](CC)CN1c1nc(=O)n(C)c2ccc(OC(F)F)nc12` (stereo partly drawn) [Example 445, 4-((2S,5R)-2,5-Diethyl-4-(1-(4-(trifluoromethyl)phenyl)ethyl)piperazin-1-yl)-6-(difluoromethoxy)-1-methylpyrido[3,2-d]pyrimidin-2(1H)-one], for which the values for the IC50 in experiment [1] and in experiment [2] were 950 nM and 2210 nM, respectively. The EC50 in experiment [3] is 9590 nM.

Take `CC[C@@H]1CN(c2nc(=O)[nH]c3ccc(C#N)nc23)[C@@H](C)CN1C(C)c1ccc(C(F)(F)F)cc1` (single isomer, unassigned) [Example 414]: the IC50 in experiment [1] is 1490 nM; in experiment [2], 11300 nM. Besides, the EC50 in experiment [3] amounted to 160 nM.

As to `CCC[C@@H]1CN(c2nc(=O)n(C)c3ccc(C#N)nc23)[C@@H](C)CN1C(C)c1ccc(C(F)(F)F)cc1` (single isomer, unassigned) [Example 395], in experiment [1], the IC50 stood at 490 nM. In addition, the concentration giving a half-maximal response (EC50) in experiment [3] turned out to be 20000 nM.

`C[C@@H]1CN(c2nc(=O)n(C)c3ccc(C#N)nc23)[C@@H](C)CN1C(c1ccc(F)cc1)C12CC(C(F)(F)F)(C1)C2` (stereo partly drawn) [Example 451, 4-((2S,5R)-4-((4-fluorophenyl)(3-(trifluoromethyl)bicyclo[1.1.1]pentan-1-yl)methyl)-2,5-dimethylpiperazin-1-yl)-1-methyl-2-oxo-1,2-dihydropyrido[3,2-d]pyrimidine-6-carbonitrile] showed an EC50 in experiment [3] of 20000 nM.

With `CC[C@@H]1CN(c2nc(=O)n(C)c3ccc(C#N)nc23)[C@@H](C)CN1C(C)c1ccc(C(F)(F)F)c(CN2CCCCC2)c1` (stereo partly drawn) [Example 354, 4-((2S,5R)-5-ethyl-2-methyl-4-(1-(3-(piperidin-1-ylmethyl)-4-(trifluoromethyl)phenyl)ethyl)piperazin-1-yl)-1-methyl-2-oxo-1,2-dihydropyrido[3,2-d]pyrimidine-6-carbonitrile], the IC50 in experiment [2] was determined as 650 nM. The EC50 in experiment [3] was 7950 nM.

With `CCOc1ccc2c(n1)c(N1C[C@@H](CC)N(C(C)c3ccc(C(F)(F)F)cc3)C[C@@H]1CC)nc(=O)n2C` (stereo partly drawn) [Example 430, 4-((2S,5R)-2,5-diethyl-4-(1-(4-(trifluoromethyl)phenyl)ethyl)piperazin-1-yl)-6-ethoxy-1-methylpyrido[3,2-d]pyrimidin-2(1H)-one], the IC50 in experiment [2] is 125000 nM. The EC50 in experiment [4] and in experiment [3] was 20000 nM each time.
